Results from the supplement of paper PMC13380429.

Assays:
Conditions in all cases: 72 h
[1] = test system: Calu-3; experiment: drug sensitivity score (DSS) for viability; higher = more toxic; extreme values may be limits of the assay
[2] = test system: Vero E6; experiment: as above
[3] = test system: U2OS; experiment: as above
[4] = test system: Caco-2; experiment: as above
[5] = test system: HepG2; experiment: as above
[6] = test system: Calu-3; experiment: cell viability relative to DMSO; higher = less toxic
[7] = test system: Vero E6; experiment: as above
[8] = test system: U2OS; experiment: as above
[9] = test system: Caco-2; experiment: as above
[10] = test system: HepG2; experiment: as above
[11] = test system: Calu-3; experiment: relative viability EC50 (midpoint between 100% and the lowest measured viability); higher = less toxic
[12] = test system: Vero E6; experiment: as above
[13] = test system: U2OS; experiment: as above
[14] = test system: Caco-2; experiment: as above
[15] = test system: HepG2; experiment: as above

SMILES | drug sensitivity score [1] | drug sensitivity score [2] | drug sensitivity score [3] | drug sensitivity score [4] | drug sensitivity score [5] | cell viability ([6]; 1 nM) [%] | cell viability ([6]; 10 nM) [%] | cell viability ([6]; 100 nM) [%] | cell viability ([6]; 1000 nM) [%] | cell viability ([6]; 10000 nM) [%] | cell viability ([7]; 1 nM) [%] | cell viability ([7]; 10 nM) [%] | cell viability ([7]; 100 nM) [%] | cell viability ([7]; 1000 nM) [%] | cell viability ([7]; 10000 nM) [%] | cell viability ([8]; 1 nM) [%] | cell viability ([8]; 10 nM) [%] | cell viability ([8]; 100 nM) [%] | cell viability ([8]; 1000 nM) [%] | cell viability ([8]; 10000 nM) [%] | cell viability ([9]; 1 nM) [%] | cell viability ([9]; 10 nM) [%] | cell viability ([9]; 100 nM) [%] | cell viability ([9]; 1000 nM) [%] | cell viability ([9]; 10000 nM) [%] | cell viability ([10]; 1 nM) [%] | cell viability ([10]; 10 nM) [%] | cell viability ([10]; 100 nM) [%] | cell viability ([10]; 1000 nM) [%] | cell viability ([10]; 10000 nM) [%] | relative viability EC50 [11] [µM] | relative viability EC50 [12] [µM] | relative viability EC50 [13] [µM] | relative viability EC50 [14] [µM] | relative viability EC50 [15] [µM]
CCOP(=S)(OCC)Oc1nc(Cl)c(Cl)cc1Cl [chlorpyrifos] | 0 | 0 | 0 | 0 | 0 | 89.7 | 93.6 | 90.1 | 97 | 96.2 | 102 | 90.2 | 109 | 106 | 94.2 | 92.3 | 102 | 94.9 | 94.8 | 99.4 | 100 | 102 | 97.5 | 103 | 107 | 93.3 | 100 | 90.3 | 96.3 | 93.7 | > 10 | > 10 | > 10 | > 10 | > 10
NS(=O)(=O)c1cc(C2(O)NC(=O)c3ccccc32)ccc1Cl (stereo not given) [chlorthalidone] | 0 | 0 | 0 | 0 | 0 | 96.7 | 92 | 107 | 86.6 | 97.4 | 97.4 | 102 | 98.8 | 103 | 97.3 | 98.4 | 97.4 | 97.3 | 96.8 | 102 | 107 | 84.5 | 96.8 | 98.6 | 99 | 97.5 | 106 | 97.7 | 107 | 99.6 | > 10 | > 10 | > 10 | > 10 | > 10
Cc1cc(O)c2c(c1)C(=O)c1cccc(O)c1C2=O [chrysophanic-acid] | 0 | 0 | 0 | 0.8 | 0 | 104 | 98.1 | 92.4 | 91.2 | 93 | 93.5 | 97.3 | 100 | 93.5 | 96.1 | 99.5 | 103 | 96.7 | 104 | 97.7 | 102 | 91.2 | 92 | 92.5 | 88.9 | 98.4 | 104 | 97.8 | 95.7 | 105 | > 10 | > 10 | > 10 | > 10 | > 10
Nc1ncnc2c1ncn2[C@@H]1O[C@H](CO)C[C@H]1O [cordycepin] | 0 | 0 | 0 | 0 | 0 | 94.6 | 98.6 | 86.1 | 92.5 | 101 | 96.6 | 97 | 96.2 | 98.1 | 103 | 95.7 | 99.3 | 95 | 105 | 110 | 93.9 | 99 | 95.2 | 97.5 | 103 | 95.3 | 98.9 | 104 | 97.4 | 114 | > 10 | > 10 | > 10 | > 10 | > 10
COc1ccc(CCN2CCN(CCCc3ccccc3)CC2)cc1OC [cutamesine] | 0 | 0 | 0 | 0 | 0 | 95.9 | 110 | 102 | 119 | 96.8 | 102 | 92.5 | 102 | 96.2 | 95.6 | 106 | 100 | 104 | 93.5 | 96.8 | 97.9 | 95.6 | 96 | 92.9 | 98 | 91.5 | 97.2 | 88.9 | 98.4 | 85 | > 10 | > 10 | > 10 | > 10 | > 10
Cc1c(O)c(=O)ccn1C [deferiprone] | 0 | 0 | 0 | 0 | 0 | 89.6 | 106 | 109 | 100 | 98.2 | 101 | 102 | 99.3 | 98.1 | 99.9 | 96.5 | 100 | 100 | 94.5 | 96.2 | 92.4 | 98.3 | 93.4 | 116 | 93.4 | 103 | 97.4 | 98.3 | 97.1 | 101 | > 10 | > 10 | > 10 | > 10 | > 10
CN(C)[C@@H]1C(O)=C(C(N)=O)C(=O)[C@@]2(O)C(O)=C3C(=O)c4c(O)ccc(Cl)c4[C@@H](O)[C@H]3C[C@@H]12 [demeclocycline] | 0 | 0 | 0 | 0 | 0 | 112 | 115 | 102 | 98.9 | 93.4 | 98.1 | 103 | 110 | 99.6 | 91 | 105 | 98 | 101 | 96.3 | 93.8 | 99.9 | 95.9 | 101 | 95.5 | 96.3 | 89.5 | 97.6 | 97.3 | 102 | 94.9 | > 10 | > 10 | > 10 | > 10 | > 10
